For the assay, the target named is T1, ALK2ca T283S (constitutively active ALK2) (Homo sapiens, UniProt Q04771, Q207D/T283S).
T1 sequence (Q04771 21-509 Q207D/T283S): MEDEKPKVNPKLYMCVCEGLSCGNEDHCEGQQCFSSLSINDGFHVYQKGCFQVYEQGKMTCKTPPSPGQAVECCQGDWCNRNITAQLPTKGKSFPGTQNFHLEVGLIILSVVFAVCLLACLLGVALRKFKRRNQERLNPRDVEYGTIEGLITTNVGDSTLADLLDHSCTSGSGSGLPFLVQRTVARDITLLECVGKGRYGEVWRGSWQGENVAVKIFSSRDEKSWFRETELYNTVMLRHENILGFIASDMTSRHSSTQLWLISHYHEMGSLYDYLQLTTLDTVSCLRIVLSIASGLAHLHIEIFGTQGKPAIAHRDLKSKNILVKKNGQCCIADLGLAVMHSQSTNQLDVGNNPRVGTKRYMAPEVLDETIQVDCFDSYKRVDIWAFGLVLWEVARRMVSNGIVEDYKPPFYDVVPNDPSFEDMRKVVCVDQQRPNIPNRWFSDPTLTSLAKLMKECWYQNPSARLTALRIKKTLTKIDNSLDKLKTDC
The assay can be described thus: BRE2-luc luciferase reporter in NIH-3T3 cells expressing ALK2ca T283S. Type of assay: cell-based.

Each structure is given as a SMILES string. pEC50: −log10 of the molar value.

In the case of `NC(=O)c1ccc(-c2nc(-c3ccc4c(c3)OCO4)c(-c3ccccn3)[nH]2)cc1` [SB431542], the pEC50 was 5.60.
